This is an account of results in patent US20230077362A1 (CORTEVA AGRISCIENCE LLC, priority 2019, published 2023).

Assay type in all cases: in vivo
The subject of assay [1] is Beet Armyworm (Spodoptera exigua) ("BAW"), second instar larvae. Kind of assay: Bioassay on beet armyworm (BAW), 128-well diet tray assay. The note with it: Spodoptera exigua, read-out: BAW rating. The method in brief:
(§1)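 After sealing with a clear self-adhesive lid, the trays are incubated at 25° C. with 14 h light and 10 h dark for 5 to 7 days; mortality in each well is recorded as a percentage and averaged across the eight wells.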

Assay [2] has as its system Cabbage Looper (Trichoplusia ni) ("CL"), second instar larvae. The assay can be described thus: Bioassay on cabbage looper (CL), 128-well diet tray assay. The note with it: Trichoplusia ni, read-out: CL rating. In a few lines: as §1
For assay [3], the system named is Green Peach Aphid ("GPA") (Myzus persicae), wingless adult and nymph stages. The assay can be described thus: Bioassay on green peach aphid (GPA), foliar spray on infested cabbage seedlings. The following applies: Myzus persicae, foliar, 72 h, read-out: GPA rating. In a few lines: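 Values are corrected % control, 100*(X−Y)/X, from live aphid counts per plant under a microscope, treated versus solvent-check plants. Four infested seedlings (20-50 GPA each) per treatment were sprayed to runoff and kept three days near 25° C at ambient RH.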

Consider `CC(C)c1ccc(N(C)C)cc1N1C(=O)CS/C1=N\C(=O)Nc1ccc(-c2ncn(-c3ccc(S(=O)(=O)C(F)(F)F)cc3)n2)cc1F` [Compound J364, (Z)-1-(3-(5-(Dimethylamino)-2-isopropylphenyl)-4-oxothiazolidin-2-ylidene)-3-(2-fluoro-4-(1-(4-((trifluoromethyl)sulfonyl)phenyl)-1H-1,2,4-triazol-3-yl)phenyl)urea], for which the pest or weed control at 50 µg/cm2 in assay [1] and in assay [2] was 50 to 100% each time. For the same molecule, the pest or weed control at 200 µg/mL in assay [3] is 0 to 80%.

Regarding `Cc1ccc(COCC(F)(F)F)c(N2C(=O)CS/C2=N\C(=O)Nc2ccc(-c3ncn(-c4ccc(S(=O)(=O)C(F)(F)F)cc4)n3)cc2C)c1` [Compound J365, (Z)-1-(3-(5-Methyl-2-((2,2,2-trifluoroethoxy)methyl)phenyl)-4-oxothiazolidin-2-ylidene)-3-(2-methyl-4-(1-(4-((trifluoromethyl)sulfonyl)phenyl)-1H-1,2,4-triazol-3-yl)phenyl)urea], the pest or weed control at 50 µg/cm2 in assay [1] and in assay [2] was 50 to 100% in each case. In addition, the pest or weed control at 200 µg/mL in assay [3] lay in the range of 0 to 80%.

As for `Cc1cc(-c2ncn(-c3ccc(S(=O)(=O)C(F)(F)F)cc3)n2)ccc1NC(=O)/N=C1\SCC(=O)N1c1cc(N(C)C)ccc1C(C)C` [Compound J366, (Z)-1-(3-(5-(Dimethylamino)-2-isopropylphenyl)-4-oxothiazolidin-2-ylidene)-3-(2-methyl-4-(1-(4-((trifluoromethyl)sulfonyl)phenyl)-1H-1,2,4-triazol-3-yl)phenyl)urea], the pest or weed control at 50 µg/cm2 in assay [1] and in assay [2] was 50 to 100% in each case. Besides, in assay [3], the pest or weed control at 200 µg/mL was in the range of 0 to 80%.

With `CC(C)c1ccc(N(C)C)cc1N1C(=O)CS/C1=N\C(=O)Nc1ccc(-c2ncn(-c3ccc(SC(F)(F)F)cc3)n2)cc1` [Compound J368, (Z)-1-(3-(5-(Dimethylamino)-2-isopropylphenyl)-4-oxothiazolidin-2-ylidene)-3-(4-(1-(4-((trifluoromethyl)thio)phenyl)-1H-1,2,4-triazol-3-yl)phenyl)urea], the pest or weed control at 50 µg/cm2 in assay [1] and in assay [2] was 50 to 100% each time. Besides, in assay [3], the pest or weed control at 200 µg/mL lay within 0 to 80%.

As to `Cc1ccc(COCc2ccc(OC(F)(F)F)cc2)c(N2C(=O)CS/C2=N\C(=O)Nc2ccc(-c3ncn(-c4ccc(OC(F)(F)F)cc4)n3)cc2F)c1` [Compound J570, (Z)-1-(2-Fluoro-4-(1-(4-(trifluoromethoxy)phenyl)-1H-1,2,4-triazol-3-yl)phenyl)-3-(3-(5-methyl-2-(((4-(trifluoromethoxy)benzyl)oxy)methyl)phenyl)-4-oxothiazolidin-2-ylidene)urea], the pest or weed control at 50 µg/cm2 in assay [1] and in assay [2] was 50 to 100% in each case. For the same molecule, in assay [3], the pest or weed control at 200 µg/mL fell in the range of 0 to 80%.

For `Cc1ccc(COCc2ccc(F)cc2)c(N2C(=O)CS/C2=N\C(=O)Nc2ccc(-c3ncn(-c4ccc(OC(F)(F)F)cc4)n3)cc2F)c1` [Compound J574, (Z)-1-(2-Fluoro-4-(1-(4-(trifluoromethoxy)phenyl)-1H-1,2,4-triazol-3-yl)phenyl)-3-(3-(2-(((4-fluorobenzyl)oxy)methyl)-5-methylphenyl)-4-oxothiazolidin-2-ylidene)urea], the pest or weed control at 50 µg/cm2 in assay [1] and in assay [2] was 50 to 100% in each case. Further, in assay [3], the pest or weed control at 200 µg/mL fell in the range of 0 to 80%.

On to `CCOCc1ccc(C)cc1N1C(=O)CS/C1=N\C(=O)Nc1ccc(-c2cn(-c3ccc(S(=O)(=O)C(F)(F)F)cc3)cn2)cc1F` [Compound J646, (Z)-1-(3-(2-(Ethoxymethyl)-5-methylphenyl)-4-oxothiazolidin-2-ylidene)-3-(2-fluoro-4-(1-(4-((trifluoromethyl)sulfonyl)phenyl)-1H-imidazol-4-yl)phenyl)urea], for which the pest or weed control at 50 µg/cm2 in assay [1] and in assay [2] was 50 to 100% throughout. Moreover, the pest or weed control at 200 µg/mL in assay [3] was 0 to 80%.

Regarding `Cc1ccc(COCC(F)(F)F)c(N2C(=O)CS/C2=N\C(=O)Nc2ccc(-c3cn(-c4ccc(S(=O)(=O)C(F)(F)F)cc4)cn3)cc2F)c1` [Compound J647, (Z)-1-(2-Fluoro-4-(1-(4-((trifluoromethyl)sulfonyl)phenyl)-1H-imidazol-4-yl)phenyl)-3-(3-(5-methyl-2-((2,2,2-trifluoroethoxy)methyl)phenyl)-4-oxothiazolidin-2-ylidene)urea], the pest or weed control at 50 µg/cm2 in assay [1] and in assay [2] was 50 to 100% throughout. For the same molecule, the pest or weed control at 200 µg/mL in assay [3] was in the range of 0 to 80%.

In the case of `Cc1ccc(COCC(F)F)c(N2C(=O)CS/C2=N\C(=O)Nc2ccc(-c3cn(-c4ccc(S(=O)(=O)C(F)(F)F)cc4)cn3)cc2F)c1` [Compound J648, (Z)-1-(3-(2-((2,2-Difluoroethoxy)methyl)-5-methylphenyl)-4-oxothiazolidin-2-ylidene)-3-(2-fluoro-4-(1-(4-((trifluoromethyl)sulfonyl)phenyl)-1H-imidazol-4-yl)phenyl)urea], the pest or weed control at 50 µg/cm2 in assay [1] and in assay [2] was 50 to 100% each time. In addition, the pest or weed control at 200 µg/mL in assay [3] was 0 to 80%.

With `COC(c1ccc(C)cc1N1C(=O)CS/C1=N\C(=O)Nc1ccc(-c2cn(-c3ccc(S(=O)(=O)C(F)(F)F)cc3)cn2)cc1F)C(F)(F)F` (stereo not drawn) [Compound J649, (Z)-1-(2-Fluoro-4-(1-(4-((trifluoromethyl)sulfonyl)phenyl)-1H-imidazol-4-yl)phenyl)-3-(3-(5-methyl-2-(2,2,2-trifluoro-1-methoxyethyl)phenyl)-4-oxothiazolidin-2-ylidene)urea], the pest or weed control at 50 µg/cm2 in assay [1] and in assay [2] was 50 to 100% throughout. Further, the pest or weed control at 200 µg/mL in assay [3] was in the range of 0 to 80%.

Consider `CC(C)c1ccc(N(C)C)cc1N1C(=O)CS/C1=N\C(=O)Nc1ccc(-c2cn(-c3ccc(S(=O)(=O)C(F)(F)F)cc3)cn2)cc1F` [Compound J650, (Z)-1-(3-(5-(Dimethylamino)-2-isopropylphenyl)-4-oxothiazolidin-2-ylidene)-3-(2-fluoro-4-(1-(4-((trifluoromethyl)sulfonyl)phenyl)-1H-imidazol-4-yl)phenyl)urea], for which the pest or weed control at 50 µg/cm2 in assay [1] and in assay [2] was 50 to 100% in each case. Further, in assay [3], the pest or weed control at 200 µg/mL lay in the range of 0 to 80%.

Regarding `COC(C)c1ccc(C#N)cc1N1C(=O)CS/C1=N\C(=O)Nc1ccc(-c2cn(-c3ccc(S(=O)(=O)C(F)(F)F)cc3)cn2)cc1F` (stereo not drawn) [Compound J652, (Z)-1-(3-(5-Cyano-2-(1-methoxyethyl)phenyl)-4-oxothiazolidin-2-ylidene)-3-(2-fluoro-4-(1-(4-((trifluoromethyl)sulfonyl)phenyl)-1H-imidazol-4-yl)phenyl)urea], the pest or weed control at 50 µg/cm2 in assay [1] and in assay [2] was 50 to 100% in each case. Moreover, the pest or weed control at 200 µg/mL in assay [3] lay within 0 to 80%.

Take `O=C(/N=C1\SCC(=O)N1c1ccccc1COCC(F)(F)F)Nc1ccc(-c2ncn(-c3ccc(OC(F)(F)F)cc3)n2)cc1F` [Compound J659, (Z)-1-(2-Fluoro-4-(1-(4-(trifluoromethoxy)phenyl)-1H-1,2,4-triazol-3-yl)phenyl)-3-(4-oxo-3-(2-((2,2,2-trifluoroethoxy)methyl)phenyl)thiazolidin-2-ylidene)urea]: the pest or weed control at 50 µg/cm2 in assay [1] and in assay [2] was 50 to 100% in each case. In addition, the pest or weed control at 200 µg/mL in assay [3] fell in the range of 0 to 80%.

Regarding `CCOCc1ccc(C)cc1N1C(=O)CS/C1=N\C(=O)Nc1ccc(-c2ncn(-c3ccc(OC(F)(F)C(F)(F)F)cc3)n2)cc1F` [Compound J663, (Z)-1-(3-(2-(Ethoxymethyl)-5-methylphenyl)-4-oxothiazolidin-2-ylidene)-3-(2-fluoro-4-(1-(4-(perfluoroethoxy)phenyl)-1H-1,2,4-triazol-3-yl)phenyl)urea], the pest or weed control at 50 µg/cm2 in assay [1] and in assay [2] was 50 to 100% each time. The pest or weed control at 200 µg/mL in assay [3] fell in the range of 0 to 80%.

Take `Cc1ccc(COCC(F)(F)F)c(N2C(=O)CS/C2=N\C(=O)Nc2ccc(-c3ncn(-c4ccc(C(F)F)cc4)n3)cc2C)c1` [Compound J684, (Z)-1-(4-(1-(4-(Difluoromethyl)phenyl)-1H-1,2,4-triazol-3-yl)-2-methylphenyl)-3-(3-(5-methyl-2-((2,2,2-trifluoroethoxy)methyl)phenyl)-4-oxothiazolidin-2-ylidene)urea]: the pest or weed control at 50 µg/cm2 in assay [1] and in assay [2] was 50 to 100% throughout. In assay [3], the pest or weed control at 200 µg/mL was in the range of 0 to 80%.

In the case of `Cc1ccc(COCC(F)(F)F)c(N2C(=O)CS/C2=N\C(=O)Nc2ccc(-c3ncn(-c4ccc(C(F)F)cc4)n3)cc2F)c1` [Compound J686, (Z)-1-(4-(1-(4-(Difluoromethyl)phenyl)-1H-1,2,4-triazol-3-yl)-2-fluorophenyl)-3-(3-(5-methyl-2-((2,2,2-trifluoroethoxy)methyl)phenyl)-4-oxothiazolidin-2-ylidene)urea], the pest or weed control at 50 µg/cm2 in assay [1] and in assay [2] was 50 to 100% throughout. Also, the pest or weed control at 200 µg/mL in assay [3] was 0 to 80%.
